In the CheMixHub viscosity set:

Experiment: xn = mol fraction of the nth substance listed

CCN(CC)CC + Cc1cc(C)cc(C)c1
viscosity [mPa·s], 101 kPa
Conditions | x2 = 0.1033 | x2 = 0.2154 | x2 = 0.2645 | x2 = 0.3959 | x2 = 0.5072 | x2 = 0.6007 | x2 = 0.7132 | x2 = 0.7989 | x2 = 0.8692
293.15 K | 0.386 | 0.41 | 0.422 | 0.453 | 0.484 | 0.517 | 0.56 | 0.593 | 0.628
303.15 K | 0.35 | 0.369 | 0.378 | 0.407 | 0.432 | 0.462 | 0.497 | 0.526 | 0.557
313.15 K | 0.315 | 0.334 | 0.342 | 0.368 | 0.391 | 0.416 | 0.449 | 0.473 | 0.5
323.15 K | 0.288 | 0.304 | 0.312 | 0.335 | 0.357 | 0.378 | 0.407 | 0.429 | 0.452

ClC(Cl)(Cl)Cl + CCO
Conditions | viscosity [mPa·s]
298.15 K, 101 kPa, x2 = 0.0247 | 0.89
298.15 K, 101 kPa, x2 = 0.0475 | 0.884
298.15 K, 101 kPa, x2 = 0.0769 | 0.883
298.15 K, 101 kPa, x2 = 0.1 | 0.872
298.15 K, 101 kPa, x2 = 0.1289 | 0.874
298.15 K, 101 kPa, x2 = 0.2438 | 0.886
298.15 K, 101 kPa, x2 = 0.27 | 0.886
298.15 K, 101 kPa, x2 = 0.37 | 0.915
298.15 K, 101 kPa, x2 = 0.3813 | 0.931
298.15 K, 101 kPa, x2 = 0.45 | 0.947
298.15 K, 101 kPa, x2 = 0.5136 | 0.974
298.15 K, 101 kPa, x2 = 0.645 | 1.023
298.15 K, 101 kPa, x2 = 0.69 | 1.037
298.15 K, 101 kPa, x2 = 0.768 | 1.068
298.15 K, 101 kPa, x2 = 0.77 | 1.064
298.15 K, 101 kPa, x2 = 0.83 | 1.079
298.15 K, 101 kPa, x2 = 0.8966 | 1.108
298.15 K, 101 kPa, x2 = 0.93 | 1.091
298.15 K, 101 kPa, x2 = 0.9687 | 1.1
303 K, 101.33 kPa, x2 = 0.37 | 0.8302
303 K, 101.33 kPa, x2 = 0.45 | 0.8567
303 K, 101.33 kPa, x2 = 0.53 | 0.8727
303 K, 101.33 kPa, x2 = 0.64 | 0.9314
303 K, 101.33 kPa, x2 = 0.69 | 0.9449
303 K, 101.33 kPa, x2 = 0.73 | 0.9479
303 K, 101.33 kPa, x2 = 0.83 | 0.9806
303 K, 101.33 kPa, x2 = 0.89 | 0.9857
303 K, 101.33 kPa, x2 = 0.91 | 1.007
303 K, 101.33 kPa, x2 = 0.93 | 0.9995
303 K, 101.33 kPa, x2 = 0.95 | 1.008
303.15 K, 101 kPa, x2 = 0.0565 | 0.8183
303.15 K, 101 kPa, x2 = 0.0932 | 0.8112
303.15 K, 101 kPa, x2 = 0.1798 | 0.8093
303.15 K, 101 kPa, x2 = 0.312 | 0.8313
303.15 K, 101 kPa, x2 = 0.4579 | 0.8759
303.15 K, 101 kPa, x2 = 0.5273 | 0.8994
303.15 K, 101 kPa, x2 = 0.6028 | 0.924
303.15 K, 101 kPa, x2 = 0.689 | 0.949
303.15 K, 101 kPa, x2 = 0.7868 | 0.974
303.15 K, 101 kPa, x2 = 0.867 | 0.9867
303.15 K, 101 kPa, x2 = 0.9134 | 0.9917
303.15 K, 101 kPa, x2 = 0.9566 | 0.9933
303.15 K, 101 kPa, x2 = 0.9724 | 0.9934
308.15 K, 101 kPa, x2 = 0.0247 | 0.773
308.15 K, 101 kPa, x2 = 0.0475 | 0.768
308.15 K, 101 kPa, x2 = 0.0769 | 0.762
308.15 K, 101 kPa, x2 = 0.1289 | 0.759
308.15 K, 101 kPa, x2 = 0.2438 | 0.768
308.15 K, 101 kPa, x2 = 0.3813 | 0.783
308.15 K, 101 kPa, x2 = 0.5136 | 0.825
308.15 K, 101 kPa, x2 = 0.645 | 0.857
308.15 K, 101 kPa, x2 = 0.768 | 0.891
308.15 K, 101 kPa, x2 = 0.8966 | 0.923
308.15 K, 101 kPa, x2 = 0.9687 | 0.914
313 K, 101.33 kPa, x2 = 0.37 | 0.7056
313 K, 101.33 kPa, x2 = 0.45 | 0.7242
313 K, 101.33 kPa, x2 = 0.53 | 0.7385
313 K, 101.33 kPa, x2 = 0.64 | 0.7801
313 K, 101.33 kPa, x2 = 0.69 | 0.7889
313 K, 101.33 kPa, x2 = 0.73 | 0.7949
313 K, 101.33 kPa, x2 = 0.83 | 0.8127
313 K, 101.33 kPa, x2 = 0.89 | 0.817
313 K, 101.33 kPa, x2 = 0.91 | 0.8276
313 K, 101.33 kPa, x2 = 0.93 | 0.8251
313 K, 101.33 kPa, x2 = 0.95 | 0.8358
318.15 K, 101 kPa, x2 = 0.0247 | 0.678
318.15 K, 101 kPa, x2 = 0.0475 | 0.676
318.15 K, 101 kPa, x2 = 0.0769 | 0.671
318.15 K, 101 kPa, x2 = 0.1289 | 0.664
318.15 K, 101 kPa, x2 = 0.2438 | 0.672
318.15 K, 101 kPa, x2 = 0.3813 | 0.672
318.15 K, 101 kPa, x2 = 0.5136 | 0.698
318.15 K, 101 kPa, x2 = 0.645 | 0.72
318.15 K, 101 kPa, x2 = 0.768 | 0.744
318.15 K, 101 kPa, x2 = 0.8966 | 0.773
318.15 K, 101 kPa, x2 = 0.9687 | 0.769
323 K, 101.33 kPa, x2 = 0.37 | 0.6106
323 K, 101.33 kPa, x2 = 0.45 | 0.6123
323 K, 101.33 kPa, x2 = 0.53 | 0.6316
323 K, 101.33 kPa, x2 = 0.64 | 0.6595
323 K, 101.33 kPa, x2 = 0.69 | 0.6672
323 K, 101.33 kPa, x2 = 0.73 | 0.6698
323 K, 101.33 kPa, x2 = 0.83 | 0.6807
323 K, 101.33 kPa, x2 = 0.89 | 0.6862
323 K, 101.33 kPa, x2 = 0.91 | 0.6947
323 K, 101.33 kPa, x2 = 0.93 | 0.6952
323 K, 101.33 kPa, x2 = 0.95 | 0.6993

CCN(CC)CC + CCCCCCC
303.15 K, 101 kPa
Conditions | viscosity [mPa·s]
x1 = 0.00966 | 0.3735
x1 = 0.01875 | 0.3719
x1 = 0.02995 | 0.3707
x1 = 0.0422 | 0.3687
x1 = 0.04845 | 0.3675
x1 = 0.05931 | 0.3663
x1 = 0.07022 | 0.365
x1 = 0.07742 | 0.3639
x1 = 0.08877 | 0.363
x1 = 0.09882 | 0.3622

CCCC(C)=O + CC(=O)O
viscosity [mPa·s], 101 kPa
Conditions | x2 = 0.0997 | x2 = 0.1996 | x2 = 0.2989 | x2 = 0.3983 | x2 = 0.5013 | x2 = 0.6017 | x2 = 0.6987 | x2 = 0.8081 | x2 = 0.8922
298.15 K | 0.5074 | 0.5482 | 0.5923 | 0.6401 | 0.6986 | 0.7628 | 0.839 | 0.9225 | 1.011
308.15 K | 0.4551 | 0.4882 | 0.5246 | 0.5655 | 0.6134 | 0.667 | 0.727 | 0.8006 | 0.878
318.15 K | 0.4061 | 0.4339 | 0.4639 | 0.4989 | 0.5394 | 0.5838 | 0.635 | 0.6961 | 0.7519

CCCOC(C)=O + CCCO
viscosity [mPa·s], 101.3 kPa
Conditions | x2 = 0.3042 | x2 = 0.5372 | x2 = 0.7245 | x2 = 0.8572
298.15 K | 0.592 | 0.755 | 0.987 | 1.305
308.15 K | 0.53 | 0.653 | 0.829 | 1.066

ClC(Cl)(Cl)Cl + O=[N+]([O-])c1ccccc1
101 kPa
Conditions | viscosity [mPa·s]
298.15 K, x1 = 0.17 | 1.613
298.15 K, x1 = 0.35 | 1.411
298.15 K, x1 = 0.55 | 1.224
298.15 K, x1 = 0.76 | 1.099
303.15 K, x2 = 0.0951 | 0.8421
303.15 K, x2 = 0.1913 | 0.8672
303.15 K, x2 = 0.2891 | 0.8934
303.15 K, x2 = 0.3875 | 0.9219
303.15 K, x2 = 0.4865 | 0.9908
303.15 K, x2 = 0.5871 | 1.059
303.15 K, x2 = 0.6886 | 1.159
303.15 K, x2 = 0.7915 | 1.25
303.15 K, x2 = 0.8947 | 1.436

CCCC(C)=O + C1CCCC1
viscosity [mPa·s], 101.33 kPa
Conditions | 293.15 K | 298.15 K | 303.15 K
x2 = 0.0411 | 0.49 | 0.463 | 0.44
x2 = 0.0966 | 0.481 | 0.455 | 0.431
x2 = 0.1985 | 0.471 | 0.445 | 0.422
x2 = 0.3214 | 0.458 | 0.433 | 0.41
x2 = 0.3876 | 0.452 | 0.428 | 0.406
x2 = 0.5026 | 0.443 | 0.419 | 0.398
x2 = 0.6097 | 0.436 | 0.414 | 0.392
x2 = 0.6934 | 0.433 | 0.41 | 0.39
x2 = 0.7996 | 0.429 | 0.407 | 0.387
x2 = 0.9054 | 0.429 | 0.406 | 0.386
x2 = 0.9515 | 0.433 | 0.41 | 0.389

CCCC[N+](CCCC)(CCCC)CCCC.[I-] + CCCCCCCCCO
101.3 kPa, x1 = 0.0476
Conditions | viscosity [mPa·s]
293.15 K | 16.29
298.15 K | 13.16
303.15 K | 10.92
308.15 K | 9.085
313.15 K | 7.675
318.15 K | 6.439
323.15 K | 5.529
